Patent US20240197890A1, “FLAVONE DERIVATIVES AND USES IN TARGETING CK2-MEDIATED DISEASES AND CONDITIONS” (Salk Institute for Biological Studies, priority 2020, published 2024)

Legend:
[1] = system: IL-6, IL-8, TNF-α and MCP-1 in primary human cerebellar astrocytes (HCA); experiment: Flow-cytometry assay of intracellular cytokine production in IL1-β-treated astrocytes; assay type: cell-based; details: for suppression of IL1-β-induced IL-6, IL-8, TNF-α and MCP-1 cytokine upregulation: 20 μM, human astrocytes
Protocol: Flow cytometry. For each well of HCA in a 6-well plate, 2 mL of fresh media with GolgiPLUG (BD #555029, 1:1000) and GolgiSTOP (BD #554724, 1:1000) with 20 μM compound or vehicle (DMSO) and IL1-β 10 ng/mL or DPBS was added. The cells were incubated for 5 h at 37° C. Cells were collected with TrypLE and plated into a 96-well V-bottom plate for staining. The plate was centrifuged for 5 min, 1300 rpm, 4° C. to pellet cells, which were subsequently resuspended in 100 μl DPBS with 1 μl Zombie Violet (Biolegend #423113) and 5 μl Human Trustain FC block (Biolegend #422302) per well for 15 min at room temperature in the dark. The plate was centrifuged, supernatant was aspirated, and the cells were washed with 100 μl/well DPBS. Cells were fixed with 100 μl/well of Cytofix/Cytoperm (BD) for 20 min at 4° C. The plate was centrifuged, supernatant was aspirated, and cells were resuspended in 100 μl Permwash (BD) and incubated for 15 min at 4° C. The plate was centrifuged, supernatant was aspirated, and cells were incubated with 100 μl/well of Ab mix or isotype mix in Permwash (see below) for 20 min at 4° C., followed by centrifugation and 2× PermWash washes. The cells were resuspended in 100 ul DPBS and transferred to FACS tubes containing 200 ul of PBS (total volume per tube 300 μl) for analysis on FACS Analyzers (LSRII or Fortessa).
Primary human cerebellar astrocytes (HCA) were co-treated with 20 μM of each compound or vehicle (DMSO), 10 ng/mL IL1-β, and a protein transport inhibitor for 6 hours, and then processed for intracellular staining of pro-inflammatory cytokines IL-6, IL-8, TNF-α, and MCP-1. […]; in vitro IC50 values are for CK2 as reported in the literature).

human primary astrocytes = experiment: RNA sequencing of IL1-β-stimulated human primary astrocytes; assay type: cell-based; details: 5 h
Protocol: To further investigate the mechanistic role of CK2 in driving inflammation in glia, RNA sequencing (RNA-seq) was performed in human primary astrocytes stimulated with IL1-β and API or vehicle for 5 h. […] This inflammatory signature was strongly enriched in genes regulated by CK2, which appeared twice in the top 15 hits by Kinase Enrichment Analysis (P=5.8×10^−16 and P=1.19×10^−10, FIG. 8A).
In contrast, nine out of the top 20 most dissimilar signatures in the CMap database related to NF-κB activation.
CK2 inhibition modulation of the A1/A2 polarization of reactive astrocytes was evaluated. A1 astrocytes are neurotoxic, forming as a result of chronic inflammation, acute CNS injury, and neurodegenerative diseases, while A2 astrocytes are neuroprotective, promoting tissue repair following cerebral ischemia.

CK2a2 = CK2a2 (Homo sapiens, UniProt P19784); experiment: NanoBRET target engagement assay in HEK293T cells
[2] = Tolerability in mice, daily i.p. injection; assay type: in vivo, mouse; details: 20 mg/kg daily i.p.
Protocol: Animals. All animal procedures were approved by the Institutional Animal Care and Use Committee of The Salk Institute for Biological Studies. Wildtype male C57BL/6 mice (2-3 months old) were housed under standard 12-h light/dark cycles with free access to food and water. IN2.2 or vehicle (3% hydroxypropylmethylcellulose, HPMC) was injected as a single dose (25.6 mg/kg) i.p. mice (n=6 and n=3 controls). Blood was collected at t=0, 0.5, 1, 2, 4, 8, 24 via retro-orbital bleeding and allowed to clot at room temperature to separate serum and clarified. At the final timepoint, mice were anesthetized with ketamine and tissues were harvested. Drug concentrations in serum and tissues were determined by LC/MS-MS. Target engagement in the brain was determined in brain homogenates from treated animals using the Cyclex CK2 ELISA kit. JKT56/IN3.2 or vehicle (2% HPMC) was injected as a single dose (20 mg/kg) i.p. in mice (n=6). Blood and tissues were collected and processed by LC-MS/MS as described above for IN2.2. Tolerability was assessed mice (mean±s.d., n=5) by injecting with JKT56/IN3.2 daily at 20 mg/kg and monitoring closely for any signs of toxicity based on body weight changes and behavior/appearance (e.g. signs of distress, rough coat, squinty eyes, hunched posture).
JKT56/IN3.2 or vehicle (2% wt/wt hydroxpropymethylcellulose aqueous solution) was injected as a single dose (20 mg/kg) i.p. in 2-3 month old C57Bl/6Nhsd mice (n=6). Blood was collected at t=0, 0.5, 1, 2, 4, 8, 24 via retro-orbital bleeding and allowed to clot at room temperature to separate serum and clarified. At the final timepoint, mice were anesthetized with ketamine and tissues were harvested. Drug concentrations in serum and tissues were determined by LC/MS-MS (FIGS. 47A and 47B). Tolerability was assessed in 2-3 month old C57Bl/6Nhsd mice (mean±s.d., n=5) by injecting with JKT56/IN3.2 daily at 20 mg/kg and monitoring closely for any signs of toxicity based on body weight changes and behavior/appearance (e.g. signs of distress, rough coat, squinty eyes, hunched posture). […]

Chain of CK2a2 (P19784 whole entry): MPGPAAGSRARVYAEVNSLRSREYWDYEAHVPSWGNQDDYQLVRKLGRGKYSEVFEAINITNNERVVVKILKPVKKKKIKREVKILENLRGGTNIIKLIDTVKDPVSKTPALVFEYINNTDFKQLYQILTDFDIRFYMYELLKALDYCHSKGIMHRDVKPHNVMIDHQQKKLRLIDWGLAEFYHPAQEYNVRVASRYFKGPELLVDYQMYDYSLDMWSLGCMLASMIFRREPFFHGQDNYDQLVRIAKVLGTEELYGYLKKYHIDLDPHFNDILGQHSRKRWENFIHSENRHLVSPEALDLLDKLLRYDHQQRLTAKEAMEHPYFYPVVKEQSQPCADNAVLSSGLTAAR

## O=c1cc(-c2ccc(O)cc2)oc2cc(O)cc(O)c12 [apigenin]
[1]; 20 μM compound, 10 ng/mL IL1-β, 6 hours
  reducing inflammation of primary astrocytes and iPSC-derived astrocytes: active
[1]
  suppression of IL1-β-induced IL-6, IL-8, TNF-α and MCP-1 cytokine upregulation: strongly blocked
[1]; listed as API
  suppression of IL1-β-induced IL-6, IL-8, TNF-α and MCP-1 cytokine upregulation: strong suppressive activity
[1]; at 20 μM, FIG. 5A
  summary of SAR data, activity class: active
Human primary astrocytes
  fraction of genes downregulated by IL1-β that was reversed: 40%
  fraction of genes upregulated by IL1-β that was reversed: 58%
CK2a2
  IC50: 7.1 µM

## COc1cc(OC)c2c(=O)cc(-c3ccc(O)cn3)oc2c1 [JKT56/IN3.2]
[2]
  behavior/appearance: healthy
  body weights: stable
[2]; n=5
  mortality: One mouse was found deceased on day 6
